Laboratory results as given in PubChem BioAssay AID1228 (The Scripps Research Institute Molecular Screening Center, 2008).
The source made the active and inactive calls.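 Rule for the calls: active = EC50 at or below 10 µM; inactive = EC50 above 10 µM.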

test system: CHO NFAT-BLA reporter, FRET beta-lactamase activation counterscreen; test: NFAT-BLA reporter activators, potency curves, dose response, counter-screen for GALR2 agonist project, CHO NFAT-bla cells, FRET readout (AID 1228)

Q: Which EC50 does the source give for Cc1ccc2nsnc2c1NC(=O)c1ccc(-c2cc(Cl)ccc2Cl)o1 here?
A: > 55.7 µM (inactive)

Q: With Cc1cc(C)c2nc(NNC(=O)c3ccc(S(=O)(=O)N4CC(C)CC(C)C4)cc3)sc2c1 (stereo unspecified) as the compound, how does the EC50 read?
A: > 55.7 µM (inactive)

Q: For Cc1cc(C)c2nc(NNC(=O)c3ccc(S(=O)(=O)N4CCCC(C)C4)cc3)sc2c1 (stereo unspecified), which EC50 is on record?
A: > 55.7 µM (inactive)

Q: How did the EC50 turn out when CCOc1ccc(Br)cc1C(=O)Nc1ccc(C(=O)NCC(C)C)cc1 was run?
A: > 55.7 µM (inactive)

Q: How did the EC50 turn out when Cc1c2ccncc2c(C)c2c1[nH]c1ccccc12 was run?
A: > 55.7 µM (inactive)

Q: Which EC50 does the source give for C=CCNC(=O)/C(C#N)=C/c1cn(-c2ccccc2)nc1-c1cccs1 here?
A: > 55.7 µM (inactive)

Q: Which EC50 does the source give for CC1=C/C(=N\OS(=O)(=O)c2ccccc2)C(C(C)C)=CC1=O here?
A: > 55.7 µM (inactive)

Q: CCCOc1ccc(C(=O)C(CCC(CNCC)C(=O)c2ccc(OCCC)cc2)CNCC)cc1 (stereo unspecified) was tested. Which EC50 did it give?
A: > 55.7 µM (inactive)

Q: How did the EC50 turn out when Cc1cccc2sc(NNC(=O)c3ccc(S(=O)(=O)N4CCCC(C)C4)cc3)nc12 (stereo unspecified) was run?
A: > 55.7 µM (inactive)

Q: For Cc1cccc2sc(NNC(=O)c3ccc(S(=O)(=O)N4CC(C)CC(C)C4)cc3)nc12 (stereo unspecified), which EC50 is on record?
A: > 55.7 µM (inactive)

Q: With COc1cc2c3cc1Oc1cc(ccc1O)C[C@@H]1c4c(cc(OC)c(O)c4Oc4ccc(cc4)C[C@H]3N(C)CC2)CCN1C as the compound, how does the EC50 read?
A: > 55.7 µM (inactive)
